Source: US9018206B2, “Carboxamide compounds and their use as calpain inhibitors” (AbbVie Deutschland GmbH & Co. KG, priority 2009, dated 2015)

How the values were obtained:
[1] = biological target: T1, cathepsin L isolated from human liver (Homo sapiens, UniProt P07711); test: Cathepsin L enzyme inhibition in vitro (kinetic fluorescence assay); assay type: biochemical; details: Ki(cathepsin L)/Ki(calpain) ratio
T1 construct: cathepsin L—isolated from human liver; purchased Calbiochem 219402; host or cells: human liver (tissue-derived)
How it was run: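 Inhibition of cathepsin L isolated from human liver was measured by kinetic fluorescence (excitation 390 nm, emission 460 nm) using 1 nM enzyme and 2 μM Z-Phe-Arg-AMC substrate (Km 2 μM) in 50 mM MES, 2 mM EDTA, 0.05% Brij 35, 2.5 mM L-cysteine, pH 6.0, at room temperature. Apparent Ki values came from IC50 values via the Cheng-Prussoff relation, averaged over 2 to 4 dose-effect plots.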

[2] = Assay for determining cytosolic clearance, cynomolgus monkey liver cytosol; assay type: in vitro ADME; details: 0.5 μM compound, 1 mg/ml cynomolgus monkey liver cytosol, 37° C., pH 7.5
Method: (§1) For comparison purposes data measured with human liver cytosol were contrasted with those obtained with cynomolgus monkey liver cytosol.
(§2) 0.5 μM of a compound to be tested was incubated with 1 mg/ml of human liver cytosol as well as monkey liver cytosol at 37° C. in 0.5 M of phosphate buffer at pH 7.5 while shaking (commercial sources: female cynomolgus liver cytosol from Tebu bio, human liver cytosol from BDgentest).
(§3) In each case aliquots of 65 μl were taken after 0, 5, 10 and 15 min and transferred into wells of a wellplate which were immediately filled with 130 μl of ethanol to stop the reaction. The samples were kept frozen until analysis on a LC/MS/MS system (Applied Biosystems SCIEX 4000).
(§4) Read out parameters were the loss of parent compounds, from which the half life periods (T1/2) were calculated from.
(§5) To assess the stability of the compounds tested the clearance ranges were adjusted to the hepatic plasma flow of the different species according to the following scheme:
(§6) stable=from 0 to about ⅓ of the hepatic plasma flow;
(§7) moderately stable=from about ⅓ to about ⅔ of the hepatic plasma flow;
(§8) instable=more than ⅔ of the hepatic plasma flow.
(§9) Based on this adjustment the following qualifiers were assigned to evaluate the cytosolic stabilities of the compounds tested: […]

[3] = Assay for determining cytosolic clearance, human liver cytosol; assay type: in vitro ADME; details: 0.5 μM compound, 1 mg/ml human liver cytosol, 37° C., pH 7.5
Method: as §1, §2, §3, §4, §5, §6, §7, §8, §9

[4] = biological target: T2, calpain-I isolated from human erythrocytes (Homo sapiens, UniProt P07384); test: Calpain I enzyme inhibition in vitro (kinetic fluorescence assay); assay type: biochemical; details: apparent Ki from IC50 (Cheng-Prussoff); 20 nM calpain-I, 100 μM Suc-Leu-Tyr-AMC, pH 7.3, room temperature
T2 construct: calpain-I—isolated from human erythrocytes; purchased Calbiochem 208713; host or cells: human erythrocytes (tissue-derived)
T2 sequence (P07384 1-714): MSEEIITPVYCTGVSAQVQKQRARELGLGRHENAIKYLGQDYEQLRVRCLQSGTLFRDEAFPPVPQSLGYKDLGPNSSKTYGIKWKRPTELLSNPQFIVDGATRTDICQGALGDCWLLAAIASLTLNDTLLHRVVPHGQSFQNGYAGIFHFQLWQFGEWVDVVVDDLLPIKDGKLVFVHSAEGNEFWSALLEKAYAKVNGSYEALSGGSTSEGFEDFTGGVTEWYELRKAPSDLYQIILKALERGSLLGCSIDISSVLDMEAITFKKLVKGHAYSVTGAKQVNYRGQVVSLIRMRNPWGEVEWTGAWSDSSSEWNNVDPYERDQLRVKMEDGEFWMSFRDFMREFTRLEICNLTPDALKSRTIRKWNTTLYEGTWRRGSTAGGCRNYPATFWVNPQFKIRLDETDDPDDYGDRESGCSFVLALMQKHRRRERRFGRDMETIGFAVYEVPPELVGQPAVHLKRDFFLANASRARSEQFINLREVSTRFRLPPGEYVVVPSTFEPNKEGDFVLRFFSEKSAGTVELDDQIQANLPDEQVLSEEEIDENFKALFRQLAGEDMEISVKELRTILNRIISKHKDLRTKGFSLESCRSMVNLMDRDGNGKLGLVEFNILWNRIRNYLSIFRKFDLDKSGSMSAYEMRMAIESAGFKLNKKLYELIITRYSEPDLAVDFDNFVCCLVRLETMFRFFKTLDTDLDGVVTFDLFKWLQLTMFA
T2 sequence (P04632 1-268 partner): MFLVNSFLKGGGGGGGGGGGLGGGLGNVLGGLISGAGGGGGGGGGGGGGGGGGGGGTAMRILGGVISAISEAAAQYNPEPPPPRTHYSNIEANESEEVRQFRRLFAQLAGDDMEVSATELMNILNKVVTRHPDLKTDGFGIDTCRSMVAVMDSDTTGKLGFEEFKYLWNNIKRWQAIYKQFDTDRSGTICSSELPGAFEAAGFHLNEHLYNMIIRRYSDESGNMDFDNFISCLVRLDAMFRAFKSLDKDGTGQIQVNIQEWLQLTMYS
How it was run: (§10)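 Kinetic AMC fluorescence (ex 390/em 460 nm), room temperature. Calpain-I 20 nM, 100 μM Suc-Leu-Tyr-AMC, imidazole/CaCl2 pH 7.3; cathepsins B 0.25 nM/100 μM Z-Phe-Arg-AMC, K 3 nM/10 μM Z-Gly-Pro-Arg-AMC, S 0.5 nM/20 μM Z-Val-Val-Arg-AMC, each MES/EDTA/cysteine pH 6.0. Ki from IC50 via Cheng-Prusoff, averaging 2–4 curves.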

[5] = biological target: T3, cathepsin K activated from recombinant human procathepsin K (Homo sapiens, UniProt P43235); test: Cathepsin K enzyme inhibition in vitro (kinetic fluorescence assay); assay type: biochemical; details: Ki(cathepsin K)/Ki(calpain) ratio
T3 construct: purchased Calbiochem 342001; host or cells: E. coli
T3 sequence (P43235 115-329): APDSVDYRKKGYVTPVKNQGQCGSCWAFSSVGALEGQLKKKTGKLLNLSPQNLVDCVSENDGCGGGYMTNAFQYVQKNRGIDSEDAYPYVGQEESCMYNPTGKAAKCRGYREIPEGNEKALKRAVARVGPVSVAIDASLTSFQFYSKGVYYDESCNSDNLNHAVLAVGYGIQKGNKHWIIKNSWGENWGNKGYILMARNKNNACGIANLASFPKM
How it was run: as §10

[6] = biological target: T4, recombinant human cathepsin S (Homo sapiens, UniProt P25774); test: Cathepsin S enzyme inhibition in vitro (kinetic fluorescence assay); assay type: biochemical; details: Ki(cathepsin S)/Ki(calpain) ratio
T4 construct: purchased Calbiochem 219343; host or cells: E. coli
How it was run: as §10

[7] = biological target: T5, cathepsin B isolated from human liver (Homo sapiens, UniProt P07858); test: Cathepsin B enzyme inhibition in vitro (kinetic fluorescence assay); assay type: biochemical; details: Ki(cathepsin B)/Ki(calpain) ratio
T5 construct: cathepsin B—isolated from human liver; purchased Calbiochem 219362; host or cells: human liver (tissue-derived)
How it was run: as §10

T4 sequence (P25774 115-331): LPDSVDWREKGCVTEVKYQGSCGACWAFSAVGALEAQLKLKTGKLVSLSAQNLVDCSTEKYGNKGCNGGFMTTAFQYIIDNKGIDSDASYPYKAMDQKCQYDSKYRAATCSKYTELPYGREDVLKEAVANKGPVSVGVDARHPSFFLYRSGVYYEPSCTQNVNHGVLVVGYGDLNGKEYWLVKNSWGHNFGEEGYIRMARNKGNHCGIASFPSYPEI
T1 sequence (P07711 114-333): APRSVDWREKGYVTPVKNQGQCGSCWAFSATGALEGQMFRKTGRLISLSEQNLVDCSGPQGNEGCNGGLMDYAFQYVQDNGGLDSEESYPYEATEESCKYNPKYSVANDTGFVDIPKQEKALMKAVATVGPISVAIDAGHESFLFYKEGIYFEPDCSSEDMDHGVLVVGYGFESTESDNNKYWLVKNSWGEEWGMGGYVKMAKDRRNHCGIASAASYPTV

SMILES	Sel cat. L [1]	cyno cytCL [2]	human cytCL [3]	Ki [4]	Sel cat. K [5]	Sel cat. S [6]	Sel cat. B [7]
CNC(=O)C(=O)C(Cc1ccccc1)NC(=O)[C@H]1CCC(=O)N1Cc1ccccc1 (mixture of isomers) [Example 25, (2R)-1-Benzyl-N-(4-(methylamino)-3,4-dioxo-1-phenylbutan-2-yl)-5-oxopyrrolidine-2-carboxamide]	+++ (Ki(cathepsin L)/Ki(calpain) ratio of >30)	++ (0-18 μl/min/mg)	++ (0-14 μl/min/mg)	0.1 to 0.6 µM	+++ (Ki(cathepsin K)/Ki(calpain) ratio of >30)	++ (30<Ki(cathepsin B)/Ki(calpain)≦100)	+++ (Ki(cathepsin B)/Ki(calpain) ratio of >30)
O=C(NC1CC1)C(=O)C(Cc1ccccc1)NC(=O)[C@H]1CCC(=O)N1Cc1ccccc1 (mixture of isomers) [Example 27, (2R)-1-Benzyl-N-(4-(cyclopropylamino)-3,4-dioxo-1-phenylbutan-2-yl)-5-oxopyrrolidine-2-carboxamide]	+++ (Ki(cathepsin L)/Ki(calpain) ratio of >30)	++ (0-18 μl/min/mg)	++ (0-14 μl/min/mg)	0.1 to 0.6 µM	+++ (Ki(cathepsin K)/Ki(calpain) ratio of >30)	++ (30<Ki(cathepsin B)/Ki(calpain)≦100)	+++ (Ki(cathepsin B)/Ki(calpain) ratio of >30)
CC(C)CNC(=O)C(=O)C(Cc1ccccc1)NC(=O)[C@H]1CCC(=O)N1Cc1ccccc1 (mixture of isomers) [Example 28, (2R)-1-Benzyl-N-(4-(isobutylamino)-3,4-dioxo-1-phenylbutan-2-yl)-5-oxopyrrolidine-2-carboxamide]	+++ (Ki(cathepsin L)/Ki(calpain) ratio of >30)	++ (0-18 μl/min/mg)	++ (0-14 μl/min/mg)	0.1 to 0.6 µM	+++ (Ki(cathepsin K)/Ki(calpain) ratio of >30)	++ (30<Ki(cathepsin B)/Ki(calpain)≦100)	+++ (Ki(cathepsin B)/Ki(calpain) ratio of >30)
O=C(NC1CC1)C(=O)C(Cc1ccccc1)NC(=O)[C@H]1CCC(=O)N1Cc1ccccc1C(F)(F)F (mixture of isomers) [Example 36, (2R)—N-(4-(Cyclopropylamino)-3,4-dioxo-1-phenylbutan-2-yl)-5-oxo-1-(2-(trifluoromethyl)benzyl)pyrrolidine-2-carboxamide]	+++ (Ki(cathepsin L)/Ki(calpain) ratio of >30)	++ (0-18 μl/min/mg)	++ (0-14 μl/min/mg)	0.05 to 0.1 µM	+++ (Ki(cathepsin K)/Ki(calpain) ratio of >30)	+++ (Ki(cathepsin S)/Ki(calpain) ratio of >100)	++ (10<Ki(cathepsin B)/Ki(calpain)≦30)
CCNC(=O)C(=O)C(Cc1ccccc1)NC(=O)[C@H]1CCC(=O)N1Cc1ccccc1C(F)(F)F (mixture of isomers) [Example 37, (2R)—N-(4-(Ethylamino)-3,4-dioxo-1-phenylbutan-2-yl)-5-oxo-1-(2-(trifluoromethyl)-benzyl)pyrrolidine-2-carboxamide]	+++ (Ki(cathepsin L)/Ki(calpain) ratio of >30)	++ (0-18 μl/min/mg)	++ (0-14 μl/min/mg)	0.1 to 0.6 µM	++ (10<Ki(cathepsin B)/Ki(calpain)≦30)	+ (10<Ki(cathepsin S)/Ki(calpain)≦30)	++ (10<Ki(cathepsin B)/Ki(calpain)≦30)
CCNC(=O)C(=O)C(Cc1ccccc1)NC(=O)[C@H]1CCC(=O)N1Cc1c(OC)cccc1C(F)(F)F (mixture of isomers) [Example 42, (2R)—N-(4-(Ethylamino)-3,4-dioxo-1-phenylbutan-2-yl)-1-(2-methoxy-6-(trifluoromethyl)benzyl)-5-oxopyrrolidine-2-carboxamide]	++ (10<Ki(cathepsin B)/Ki(calpain)≦30)	++ (0-18 μl/min/mg)	++ (0-14 μl/min/mg)		++ (10<Ki(cathepsin B)/Ki(calpain)≦30)		++ (10<Ki(cathepsin B)/Ki(calpain)≦30)
COc1cccc(C(F)(F)F)c1CN1C(=O)CC[C@@H]1C(=O)NC(Cc1ccccc1)C(=O)C(=O)NCc1ccccn1 (mixture of isomers) [Example 43, (2R)—N-(3,4-Dioxo-1-phenyl-4-(pyridin-2-ylmethylamino)butan-2-yl)-1-(2-methoxy-6-(trifluoromethyl)benzyl)-5-oxopyrrolidine-2-carboxamide]	+++ (Ki(cathepsin L)/Ki(calpain) ratio of >30)	++ (0-18 μl/min/mg)	++ (0-14 μl/min/mg)	0.1 to 0.6 µM	+++ (Ki(cathepsin K)/Ki(calpain) ratio of >30)	++ (30<Ki(cathepsin B)/Ki(calpain)≦100)	+++ (Ki(cathepsin B)/Ki(calpain) ratio of >30)
O=C(NCc1ccc(C(F)(F)F)cc1)C(=O)C(Cc1ccccc1)NC(=O)[C@H]1CCC(=O)N1Cc1ccccc1 (mixture of isomers) [Example 68, (2R)-1-Benzyl-N-(3,4-dioxo-1-phenyl-4-(4-(trifluoromethyl)benzylamino)butan-2-yl)-5-oxopyrrolidine-2-carboxamide]	++ (10<Ki(cathepsin B)/Ki(calpain)≦30)	++ (0-18 μl/min/mg)		0.1 to 0.6 µM	+++ (Ki(cathepsin K)/Ki(calpain) ratio of >30)	+++ (Ki(cathepsin S)/Ki(calpain) ratio of >100)	+++ (Ki(cathepsin B)/Ki(calpain) ratio of >30)
O=C(NCc1ccccn1)C(=O)C(Cc1ccccc1)NC(=O)[C@H]1CCC(=O)N1Cc1ccccc1 (stereo partly drawn) [Example 20, (2R)-1-Benzyl-N-{3,4-dioxo-1-phenyl-4-[(pyridin-2-ylmethyl)amino]butan-2-yl}-5-oxopyrrolidine-2-carboxamide]	++ (10<Ki(cathepsin B)/Ki(calpain)≦30)	++ (0-18 μl/min/mg)	++ (0-14 μl/min/mg)	0.05 to 0.1 µM	+++ (Ki(cathepsin K)/Ki(calpain) ratio of >30)	+++ (Ki(cathepsin S)/Ki(calpain) ratio of >100)	+++ (Ki(cathepsin B)/Ki(calpain) ratio of >30)
